In patent publication US9212187B2, “Nitrogen-containing compounds and pharmaceutical compositions thereof for the treatment of atrial fibrillation” (OTSUKA PHARMACEUTICAL CO., LTD., priority 2009, dated 2015) one finds IC50 data, which are given here for three compounds.

Each structure is given as a SMILES string. Where a name gives a salt, the structure may show the parent alone.

In this test the target is human Kv1.5 channels (Homo sapiens (Human), UniProt P22460). Briefly: Measurement of human Kv1.5 channel current by whole-cell patch clamp method (human Kv1.5-expressing CHO-K1 cell line), Pharmacological Test 1. The class given is cell-based. The conditions noted are these: First Invention, Table 2, human Kv1.5-expressing CHO-K1 cells, step end current at +40 mV. The procedure: Pharmacological Test 1 (1) Production of Human Kv1.5-Expressing CHO-K1 Cell Lines
human Kv1.5 channels, sequence (P22460 whole entry): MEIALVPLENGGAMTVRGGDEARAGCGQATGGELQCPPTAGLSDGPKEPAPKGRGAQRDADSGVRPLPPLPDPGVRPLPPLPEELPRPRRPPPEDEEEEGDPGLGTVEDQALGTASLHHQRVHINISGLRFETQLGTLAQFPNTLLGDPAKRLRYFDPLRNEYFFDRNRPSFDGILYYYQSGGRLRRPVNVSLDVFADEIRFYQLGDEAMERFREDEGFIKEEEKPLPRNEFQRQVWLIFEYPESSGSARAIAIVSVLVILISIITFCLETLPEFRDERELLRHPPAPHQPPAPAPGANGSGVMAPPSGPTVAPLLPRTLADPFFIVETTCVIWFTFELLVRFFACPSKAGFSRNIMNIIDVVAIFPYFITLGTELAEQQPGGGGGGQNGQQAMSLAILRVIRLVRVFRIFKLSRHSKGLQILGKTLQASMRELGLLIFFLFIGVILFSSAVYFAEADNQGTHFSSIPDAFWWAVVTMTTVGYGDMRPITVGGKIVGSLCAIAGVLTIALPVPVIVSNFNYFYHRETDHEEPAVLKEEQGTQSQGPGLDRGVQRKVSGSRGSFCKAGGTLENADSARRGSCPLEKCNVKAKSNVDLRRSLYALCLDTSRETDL
CHO-K1 cell lines stably expressing human Kv1.5 channels were prepared in the following manner.
Full-length human Kv1.5 cDNA was cloned from a human heart cDNA library (produced by Stratagene). The obtained human Kv1.5 sequence corresponds to the sequence described in FASEB J. 5, 331-337 (1991).
The obtained human Kv1.5 cDNA was inserted into a plasmid encoding a CMV promoter and a G418 resistance marker to produce a Kv1.5 expression vector. The human Kv1.5 expression vector was transfected into CHO-K1 cells by the lipofectamine method. After culturing the cells in an F-12 medium (produced by Invitrogen Corp.) containing 10% FBS (produced by Invitrogen Corp.) for 3 or 4 days, the medium was replaced with a FBS-containing F-12 medium that included 1,000 μg/ml of G418 (produced by Invitrogen Corp.), and single colonies were isolated. The amount of Kv1.5 channel expression in the single colonies was quantified at the mRNA level by RT-PCR and then quantified at the protein level by western blotting. Finally, the expressed current was analyzed by patch clamp method. […]
Depolarizing stimulation pulses were applied and ionic current was recorded by using a patch clamp amplifier (EPC-7 or EPC-7 PLUS, produced by HEKA) and a personal computer (manufactured by IBM Corp.) in which software for data acquisition and analysis of ion channel current (PULSE 8.77, produced by HEKA) was installed. The current was measured in the whole-cell configuration of the patch-clamp technique. […] Subsequently, the series resistance (Rs) between the pipette and the interior of the cell was measured and corrected. […]
While the membrane potential was holded at −80 mV, depolarizing pulses (−80 mV for 0.05 seconds→□□+40 mV for 0.2 seconds →□□−40 mV for 0.2 seconds→□□−80 mV for 0.05 seconds) were applied at a stimulation frequency of 1 Hz to measure Kv1.5 channel current. […] The current obtained during the pulse application was recorded as a current in the absence of the test compounds. […]
Regarding `CCN1C(=O)C(C)(C)C(=O)N(C)c2cc(CN(CCn3ccc4oc(C)cc4c3=O)Cc3cccnc3COC)ccc21` [Example 317, 1-Ethyl-7-({N-(2-methoxymethylpyridin-3-ylmethyl)-N-[2-(2-methyl-4-oxo-4H-furo[3,2-c]pyridin-5-yl)ethyl]amino}methyl)-3,3,5-trimethyl-1,5-dihydrobenzo[b][1,4]diazepine-2,4-dione], half-maximal inhibition (IC50) was put at 630 nM. The value for `CCN1C(=O)C(C)(C)C(=O)N(C)c2cc(CN(CCn3cc(C)c4occc4c3=O)Cc3cccnc3COC)ccc21` [Example 318, 1-Ethyl-7-({N-(2-methoxymethylpyridin-3-ylmethyl)-N-[2-(7-methyl-4-oxo-4H-furo[3,2-c]pyridin-5-yl)ethyl]amino}methyl)-3,3,5-trimethyl-1,5-dihydrobenzo[b][1,4]diazepine-2,4-dione] was 2900 nM; that for `CCN1C(=O)C(C)(C)C(=O)N(C)c2cc(CN(CCc3cccnc3)C(=O)Cc3cn(C)c4ccccc34)ccc21` [Example 330, N-(1-Ethyl-3,3,5-trimethyl-2,4-dioxo-2,3,4,5-tetrahydro-1H-benzo[b][1,4]diazepin-7-ylmethyl)-2-(1-methyl-1H-indol-3-yl)-N-(2-pyridin-3-ylethyl)acetamide hydrochloride] was 860 nM.
